Source: the supplement of paper PMC10883282

Legend:
Assay in all cases: relative viability vs DMSO control (72 h) (fraction); higher = more viable cells
A204 = test system: A204
Method in brief: (§1)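 Sarcoma cell lines were seeded in 384-well plates at densities chosen for 80–90% confluence, then 24 h later given 2.5 µl of serially diluted compound drawn from source plates spanning 10 mM to 0.0002 mM. They were held 72 h at 37 °C, 5% CO2, with 0.1% DMSO vehicle and a 5 µM positive control included. Relative viability was read with ATPLite as percent growth and averaged over up to triplicate wells. Rescaling placed full at 1 and none at 0.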

G401 = test system: G401
Method in brief: as §1

HS729 = test system: HS729
Method in brief: as §1

KHOS-240S = test system: KHOS-240S
Method in brief: as §1

MES-SA = test system: MES-SA
Method in brief: as §1

SK-ES-1 = test system: SK-ES-1
Method in brief: as §1

SK-LMS-1 = test system: SK-LMS-1
Method in brief: as §1

SW1353 = test system: SW1353
Method in brief: as §1

SW684 = test system: SW684
Method in brief: as §1

SW872 = test system: SW872
Method in brief: as §1

SW982 = test system: SW982
Method in brief: as §1

SYO-1 = test system: SYO-1
Method in brief: as §1

CO[C@@H]1[C@H](N(C)C(=O)c2ccccc2)C[C@H]2O[C@]1(C)n1c3ccccc3c3c4c(c5c6ccccc6n2c5c31)C(=O)NC4 [Midostaurin]
Settings	relative viability
A204, 0.00017 µM	1.04
A204, 0.00051 µM	1.03
A204, 0.00152 µM	1.02
A204, 0.00457 µM	0.997
A204, 0.01372 µM	1.01
A204, 0.04115 µM	0.961
A204, 0.1235 µM	0.792
A204, 0.3704 µM	0.485
A204, 1.111 µM	0.263
A204, 3.333 µM	0.192
A204, 10 µM	0.157
G401, 0.00017 µM	0.948
G401, 0.00051 µM	0.976
G401, 0.00152 µM	0.98
G401, 0.00457 µM	0.969
G401, 0.01372 µM	0.953
G401, 0.04115 µM	0.878
G401, 0.1235 µM	0.854
G401, 0.3704 µM	0.678
G401, 1.111 µM	0.436
G401, 3.333 µM	0.229
G401, 10 µM	0.159
HS729, 0.00017 µM	0.927
HS729, 0.00051 µM	0.913
HS729, 0.00152 µM	0.914
HS729, 0.00457 µM	0.921
HS729, 0.01372 µM	0.874
HS729, 0.04115 µM	0.828
HS729, 0.1235 µM	0.791
HS729, 0.3704 µM	0.684
HS729, 1.111 µM	0.368
HS729, 3.333 µM	0.269
HS729, 10 µM	0.273
KHOS-240S, 0.00017 µM	1.04
KHOS-240S, 0.00051 µM	1.04
KHOS-240S, 0.00152 µM	1.03
KHOS-240S, 0.00457 µM	1.04
KHOS-240S, 0.01372 µM	1.02
KHOS-240S, 0.04115 µM	0.937
KHOS-240S, 0.1235 µM	0.797
KHOS-240S, 0.3704 µM	0.536
KHOS-240S, 1.111 µM	0.256
KHOS-240S, 3.333 µM	0.143
KHOS-240S, 10 µM	0.09613
MES-SA, 0.00017 µM	0.87
MES-SA, 0.00051 µM	0.8799
MES-SA, 0.00152 µM	0.889
MES-SA, 0.00457 µM	0.885
MES-SA, 0.01372 µM	0.891
MES-SA, 0.04115 µM	0.866
MES-SA, 0.1235 µM	0.818
MES-SA, 0.3704 µM	0.408
MES-SA, 1.111 µM	0.251
MES-SA, 3.333 µM	0.139
MES-SA, 10 µM	0.0904
SK-ES-1, 0.00017 µM	0.994
SK-ES-1, 0.00051 µM	0.969
SK-ES-1, 0.00152 µM	0.931
SK-ES-1, 0.00457 µM	0.985
SK-ES-1, 0.01372 µM	0.987
SK-ES-1, 0.04115 µM	0.966
SK-ES-1, 0.1235 µM	0.898
SK-ES-1, 0.3704 µM	0.266
SK-ES-1, 1.111 µM	0.0642
SK-ES-1, 3.333 µM	0.0543
SK-ES-1, 10 µM	0.0611
SK-LMS-1, 0.00017 µM	0.981
SK-LMS-1, 0.00051 µM	0.972
SK-LMS-1, 0.00152 µM	0.987
SK-LMS-1, 0.00457 µM	1.02
SK-LMS-1, 0.01372 µM	1.02
SK-LMS-1, 0.04115 µM	0.946
SK-LMS-1, 0.1235 µM	0.793
SK-LMS-1, 0.3704 µM	0.564
SK-LMS-1, 1.111 µM	0.392
SK-LMS-1, 3.333 µM	0.36
SK-LMS-1, 10 µM	0.364
SW684, 0.00017 µM	1.08
SW684, 0.00051 µM	1.05
SW684, 0.00152 µM	1.05
SW684, 0.00457 µM	1.02
SW684, 0.01372 µM	1.04
SW684, 0.04115 µM	1.05
SW684, 0.1235 µM	1.08
SW684, 0.3704 µM	0.863
SW684, 1.111 µM	0.524
SW684, 3.333 µM	0.406
SW684, 10 µM	0.363
SW872, 0.00017 µM	0.976
SW872, 0.00051 µM	1
SW872, 0.00152 µM	0.965
SW872, 0.00457 µM	0.958
SW872, 0.01372 µM	0.945
SW872, 0.04115 µM	0.896
SW872, 0.1235 µM	0.826
SW872, 0.3704 µM	0.592
SW872, 1.111 µM	0.399
SW872, 3.333 µM	0.253
SW872, 10 µM	0.219
SW982, 0.00017 µM	1
SW982, 0.00051 µM	0.978
SW982, 0.00152 µM	0.979
SW982, 0.00457 µM	0.931
SW982, 0.01372 µM	0.93
SW982, 0.04115 µM	0.939
SW982, 0.1235 µM	0.821
SW982, 0.3704 µM	0.375
SW982, 1.111 µM	0.19
SW982, 3.333 µM	0.124
SW982, 10 µM	0.122
SW1353, 0.00017 µM	0.918
SW1353, 0.00051 µM	0.927
SW1353, 0.00152 µM	0.9048
SW1353, 0.00457 µM	0.916
SW1353, 0.01372 µM	0.883
SW1353, 0.04115 µM	0.879
SW1353, 0.1235 µM	0.712
SW1353, 0.3704 µM	0.411
SW1353, 1.111 µM	0.272
SW1353, 3.333 µM	0.229
SW1353, 10 µM	0.218
SYO-1, 0.00017 µM	0.955
SYO-1, 0.00051 µM	0.946
SYO-1, 0.00152 µM	0.941
SYO-1, 0.00457 µM	0.92
SYO-1, 0.01372 µM	0.833
SYO-1, 0.04115 µM	0.755
SYO-1, 0.1235 µM	0.676
SYO-1, 0.3704 µM	0.294
SYO-1, 1.111 µM	0.0535
SYO-1, 3.333 µM	0.0115
SYO-1, 10 µM	0.00107

Cc1ccc(C(=O)OCc2ccc([C@@H](CN)C(=O)Nc3ccc4cnccc4c3)cc2)c(C)c1 [Netarsudil]
Settings	relative viability
A204, 0.00017 µM	1.03
A204, 0.00051 µM	1.05
A204, 0.00152 µM	1.04
A204, 0.00457 µM	1.03
A204, 0.01372 µM	1.01
A204, 0.04115 µM	0.963
A204, 0.1235 µM	0.841
A204, 0.3704 µM	0.82
A204, 1.111 µM	0.703
A204, 3.333 µM	0.609
A204, 10 µM	0.00737
G401, 0.00017 µM	0.956
G401, 0.00051 µM	0.985
G401, 0.00152 µM	0.977
G401, 0.00457 µM	0.996
G401, 0.01372 µM	0.9802
G401, 0.04115 µM	0.957
G401, 0.1235 µM	0.968
G401, 0.3704 µM	0.973
G401, 1.111 µM	0.941
G401, 3.333 µM	0.946
G401, 10 µM	0.00503
HS729, 0.00017 µM	0.874
HS729, 0.00051 µM	0.85
HS729, 0.00152 µM	0.899
HS729, 0.00457 µM	0.852
HS729, 0.01372 µM	0.87
HS729, 0.04115 µM	0.896
HS729, 0.1235 µM	0.876
HS729, 0.3704 µM	0.844
HS729, 1.111 µM	0.812
HS729, 3.333 µM	0.8113
HS729, 10 µM	0.224
KHOS-240S, 0.00017 µM	1.06
KHOS-240S, 0.00051 µM	1.07
KHOS-240S, 0.00152 µM	1.05
KHOS-240S, 0.00457 µM	1.05
KHOS-240S, 0.01372 µM	1.01
KHOS-240S, 0.04115 µM	1.03
KHOS-240S, 0.1235 µM	0.903
KHOS-240S, 0.3704 µM	0.768
KHOS-240S, 1.111 µM	0.686
KHOS-240S, 3.333 µM	0.541
KHOS-240S, 10 µM	0.0141
MES-SA, 0.00017 µM	0.89
MES-SA, 0.00051 µM	0.901
MES-SA, 0.00152 µM	0.892
MES-SA, 0.00457 µM	0.905
MES-SA, 0.01372 µM	0.921
MES-SA, 0.04115 µM	0.884
MES-SA, 0.1235 µM	0.85
MES-SA, 0.3704 µM	0.775
MES-SA, 1.111 µM	0.672
MES-SA, 3.333 µM	0.402
MES-SA, 10 µM	0.00233
SK-ES-1, 0.00017 µM	1.01
SK-ES-1, 0.00051 µM	0.999
SK-ES-1, 0.00152 µM	1.04
SK-ES-1, 0.00457 µM	1.04
SK-ES-1, 0.01372 µM	1.03
SK-ES-1, 0.04115 µM	1.04
SK-ES-1, 0.1235 µM	1.03
SK-ES-1, 0.3704 µM	1.04
SK-ES-1, 1.111 µM	1.04
SK-ES-1, 3.333 µM	0.761
SK-ES-1, 10 µM	0.0124
SK-LMS-1, 0.00017 µM	1.03
SK-LMS-1, 0.00051 µM	1.05
SK-LMS-1, 0.00152 µM	1.02
SK-LMS-1, 0.00457 µM	1
SK-LMS-1, 0.01372 µM	1.043
SK-LMS-1, 0.04115 µM	1.03
SK-LMS-1, 0.1235 µM	1.07
SK-LMS-1, 0.3704 µM	0.989
SK-LMS-1, 1.111 µM	0.799
SK-LMS-1, 3.333 µM	0.574
SK-LMS-1, 10 µM	0.0101
SW684, 0.00017 µM	1.12
SW684, 0.00051 µM	1.1
SW684, 0.00152 µM	1.11
SW684, 0.00457 µM	1.11
SW684, 0.01372 µM	1.09
SW684, 0.04115 µM	1.076
SW684, 0.1235 µM	0.991
SW684, 0.3704 µM	0.8806
SW684, 1.111 µM	0.884
SW684, 3.333 µM	0.805
SW684, 10 µM	-0.0136
SW872, 0.00017 µM	0.997
SW872, 0.00051 µM	1.01
SW872, 0.00152 µM	1.01
SW872, 0.00457 µM	0.988
SW872, 0.01372 µM	1.01
SW872, 0.04115 µM	0.955
SW872, 0.1235 µM	0.961
SW872, 0.3704 µM	0.82
SW872, 1.111 µM	0.74
SW872, 3.333 µM	0.637
SW872, 10 µM	0.000233
SW982, 0.00017 µM	1.06
SW982, 0.00051 µM	1.03
SW982, 0.00152 µM	1.03
SW982, 0.00457 µM	1.04
SW982, 0.01372 µM	1.05
SW982, 0.04115 µM	1.032
SW982, 0.1235 µM	0.98
SW982, 0.3704 µM	0.897
SW982, 1.111 µM	0.841
SW982, 3.333 µM	0.749
SW982, 10 µM	0.0152
SW1353, 0.00017 µM	0.939
SW1353, 0.00051 µM	0.945
SW1353, 0.00152 µM	0.946
SW1353, 0.00457 µM	0.944
SW1353, 0.01372 µM	0.926
SW1353, 0.04115 µM	0.946
SW1353, 0.1235 µM	0.898
SW1353, 0.3704 µM	0.7532
SW1353, 1.111 µM	0.628
SW1353, 3.333 µM	0.553
SW1353, 10 µM	0.0095
SYO-1, 0.00017 µM	0.953
SYO-1, 0.00051 µM	0.962
SYO-1, 0.00152 µM	0.952
SYO-1, 0.00457 µM	0.953
SYO-1, 0.01372 µM	0.923
SYO-1, 0.04115 µM	0.874
SYO-1, 0.1235 µM	0.828
SYO-1, 0.3704 µM	0.756
SYO-1, 1.111 µM	0.691
SYO-1, 3.333 µM	0.636
SYO-1, 10 µM	-0.0088
